Assay: in vivo
Conditions: mouse, iv, 0.2 nmol/mouse, total radioactivity

Measured: tissue uptake at 24 h

C[C@@H](O)[C@@H]1NC(=O)[C@H](CCCCN)NC(=O)[C@@H](Cc2ccc(NC(N)=O)cc2)NC(=O)[C@H](Cc2ccc(O)cc2)NC(=O)[C@H](NC(=O)[C@H](Cc2ccc(Cl)cc2)NC(=O)CN2CCN(CC(=O)O)CCN(CC(=O)O)CCN(CC(=O)O)CC2)CSSC[C@@H](C(=O)N[C@H](Cc2ccc(O)cc2)C(N)=O)NC1=O [metal not drawn]
≤ 0.1 %ID/g: blood | heart | muscle

From paper PMC8921065, “Combination of terbium-161 with somatostatin receptor antagonists—a potential paradigm shift for the treatment of neuroendocrine neoplasms” (European Journal of Nuclear Medicine and Molecular Imaging, 2021)
